{"source": "ChEMBL document CHEMBL5230123", "about": "“A comprehensive review of monoamine oxidase inhibitors as Anti-Alzheimer's disease agents: A review” (Eur J Med Chem, 2020)", "key": {"[1]": {"biological_target": "T1, Amine oxidase [flavin-containing] B (Homo sapiens, UniProt P27338)", "T1 sequence (P27338 whole entry)": "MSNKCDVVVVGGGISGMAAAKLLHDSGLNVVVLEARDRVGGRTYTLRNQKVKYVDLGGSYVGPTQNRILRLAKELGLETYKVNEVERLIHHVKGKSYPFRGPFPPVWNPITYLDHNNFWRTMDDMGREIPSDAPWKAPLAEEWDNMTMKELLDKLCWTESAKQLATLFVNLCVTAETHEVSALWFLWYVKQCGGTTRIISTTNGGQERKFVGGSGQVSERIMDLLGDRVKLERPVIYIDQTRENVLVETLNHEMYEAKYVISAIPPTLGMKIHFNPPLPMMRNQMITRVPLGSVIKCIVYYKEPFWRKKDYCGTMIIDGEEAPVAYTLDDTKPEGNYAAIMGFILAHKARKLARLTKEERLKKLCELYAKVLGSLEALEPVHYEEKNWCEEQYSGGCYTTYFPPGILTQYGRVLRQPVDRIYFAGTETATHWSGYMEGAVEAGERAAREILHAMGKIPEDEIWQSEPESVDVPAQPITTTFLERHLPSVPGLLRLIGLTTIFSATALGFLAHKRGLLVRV", "assay": "Inhibition of recombinant human MAO-B expressed in insect cells using kynuramine as substrate incubated for 20 mins by Amplex Red reagent based fluorometric method"}, "Homo sapiens": {"organism": "Homo sapiens", "assay": "Selectivity index, ratio of IC50 for inhibition of recombinant human MAO-B to IC50 for inhibition of recombinant human MAO-A"}, "[2]": {"biological_target": "T2, Amine oxidase [flavin-containing] A (Homo sapiens, UniProt P21397)", "T2 sequence (P21397 whole entry)": "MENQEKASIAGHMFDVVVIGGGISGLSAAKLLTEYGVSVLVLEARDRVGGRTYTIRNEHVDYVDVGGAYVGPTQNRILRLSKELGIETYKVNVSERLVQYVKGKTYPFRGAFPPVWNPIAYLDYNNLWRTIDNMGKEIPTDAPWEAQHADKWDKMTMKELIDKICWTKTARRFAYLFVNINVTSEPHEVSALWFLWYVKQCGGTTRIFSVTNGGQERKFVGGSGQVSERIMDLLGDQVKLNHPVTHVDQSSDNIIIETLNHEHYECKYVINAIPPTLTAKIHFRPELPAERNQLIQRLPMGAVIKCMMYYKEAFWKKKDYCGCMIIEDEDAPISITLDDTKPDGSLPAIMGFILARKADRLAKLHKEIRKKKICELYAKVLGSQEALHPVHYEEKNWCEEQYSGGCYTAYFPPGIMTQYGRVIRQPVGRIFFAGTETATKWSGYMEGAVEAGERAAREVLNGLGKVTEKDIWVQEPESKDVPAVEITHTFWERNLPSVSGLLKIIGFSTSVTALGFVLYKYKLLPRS", "assay": "Inhibition of recombinant human MAO-A expressed in insect cells using kynuramine as substrate incubated for 20 mins by Amplex Red reagent based fluorometric method"}, "[3]": {"biological_target": "T2, Amine oxidase [flavin-containing] A", "assay": "Inhibition of recombinant human MAO-A using kynuramine as substrate incubated for 10 mins followed by substrate addition and measured for 20 mins by Fluorescence microplate reader assay"}, "[4]": {"biological_target": "T1, Amine oxidase [flavin-containing] B", "assay": "Inhibition of MAO-B (unknown origin) using kynuramine as substrate preincubated for 10 mins followed by substrate addition and measured after 20 mins by fluorescence microplate reader assay"}, "[5]": {"biological_target": "T2, Amine oxidase [flavin-containing] A", "assay": "Inhibition of MAO-A (unknown origin) using kynuramine as substrate preincubated for 10 mins followed by substrate addition and measured after 20 mins by fluorescence microplate reader assay"}, "[6]": {"biological_target": "T1, Amine oxidase [flavin-containing] B", "assay": "Inhibition of recombinant human MAO-B using p-tyramine as substrate preincubated for 15 mins followed by substrate addition and measured after 20 mins by fluorescence assay"}, "Acetylcholinesterase [7]": {"biological_target": "T3, Acetylcholinesterase (Homo sapiens, UniProt P22303)", "T3 sequence (P22303 whole entry)": "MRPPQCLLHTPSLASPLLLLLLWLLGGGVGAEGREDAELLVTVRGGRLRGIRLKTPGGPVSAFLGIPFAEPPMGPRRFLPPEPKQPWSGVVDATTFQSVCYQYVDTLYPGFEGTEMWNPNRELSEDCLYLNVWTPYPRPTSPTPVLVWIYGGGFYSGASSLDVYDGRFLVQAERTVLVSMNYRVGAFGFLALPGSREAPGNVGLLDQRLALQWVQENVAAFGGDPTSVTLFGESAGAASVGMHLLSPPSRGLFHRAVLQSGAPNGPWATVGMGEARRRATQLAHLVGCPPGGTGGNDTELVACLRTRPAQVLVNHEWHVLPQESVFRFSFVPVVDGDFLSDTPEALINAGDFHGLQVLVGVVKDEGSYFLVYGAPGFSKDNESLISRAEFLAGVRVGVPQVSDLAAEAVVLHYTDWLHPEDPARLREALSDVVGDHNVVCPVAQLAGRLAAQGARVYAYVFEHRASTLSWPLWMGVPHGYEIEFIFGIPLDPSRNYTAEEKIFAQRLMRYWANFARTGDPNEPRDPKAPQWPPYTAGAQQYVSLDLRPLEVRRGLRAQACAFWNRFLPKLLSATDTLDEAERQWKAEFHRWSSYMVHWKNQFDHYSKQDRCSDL", "assay": "Inhibition of human AChE using acetylcholine as substrate incubated for 5 mins followed by substrate addition by Ellman's method"}, "[8]": {"biological_target": "T4, Amine oxidase [flavin-containing] B (Rattus norvegicus, UniProt P19643)", "T4 sequence (P19643 whole entry)": "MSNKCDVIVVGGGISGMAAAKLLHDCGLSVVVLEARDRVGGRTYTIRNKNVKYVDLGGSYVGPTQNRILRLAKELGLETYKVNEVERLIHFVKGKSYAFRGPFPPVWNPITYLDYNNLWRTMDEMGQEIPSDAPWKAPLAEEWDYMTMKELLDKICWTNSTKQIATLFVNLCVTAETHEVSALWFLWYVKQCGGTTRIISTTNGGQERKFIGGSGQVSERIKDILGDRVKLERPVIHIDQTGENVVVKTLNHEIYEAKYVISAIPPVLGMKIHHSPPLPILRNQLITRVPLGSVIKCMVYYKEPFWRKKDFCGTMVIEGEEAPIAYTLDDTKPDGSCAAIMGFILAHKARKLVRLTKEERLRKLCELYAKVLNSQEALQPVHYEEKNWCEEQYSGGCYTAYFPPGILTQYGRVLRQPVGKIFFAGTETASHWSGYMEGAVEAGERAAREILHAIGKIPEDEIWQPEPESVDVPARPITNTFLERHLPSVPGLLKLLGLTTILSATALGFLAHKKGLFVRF", "assay": "Inhibition of rat brain mitochondria MAO-B using p-tyramine as substrate incubated for 15 mins followed by substrate addition and measured for 15 by microplate fluorescence reader analysis"}, "[9]": {"biological_target": "T1, Amine oxidase [flavin-containing] B", "assay": "Inhibition of human MAO-B using tyramine as substrate by amplex red assay"}, "[10]": {"biological_target": "Cholinesterase (Equus caballus) (UniProt P81908)", "sequence (P81908 whole entry)": "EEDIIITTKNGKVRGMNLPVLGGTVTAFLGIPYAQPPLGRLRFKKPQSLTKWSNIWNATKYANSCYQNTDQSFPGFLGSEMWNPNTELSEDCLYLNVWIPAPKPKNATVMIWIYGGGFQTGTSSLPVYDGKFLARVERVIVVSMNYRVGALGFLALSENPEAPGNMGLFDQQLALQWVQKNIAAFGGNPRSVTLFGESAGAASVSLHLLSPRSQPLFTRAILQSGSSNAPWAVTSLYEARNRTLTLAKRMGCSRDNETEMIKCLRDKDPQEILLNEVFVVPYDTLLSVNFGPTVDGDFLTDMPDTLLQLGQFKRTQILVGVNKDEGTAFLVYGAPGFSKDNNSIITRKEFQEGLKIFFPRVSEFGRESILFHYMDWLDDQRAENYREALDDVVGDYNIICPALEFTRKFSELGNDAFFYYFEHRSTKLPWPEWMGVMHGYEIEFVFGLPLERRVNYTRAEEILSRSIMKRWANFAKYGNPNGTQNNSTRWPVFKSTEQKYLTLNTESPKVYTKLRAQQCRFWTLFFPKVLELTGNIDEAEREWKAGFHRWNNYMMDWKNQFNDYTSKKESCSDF", "assay": "Inhibition of horse serum BuChE using butyrylthiocholine iodide as substrate at 10 uM incubated for 6 mins followed by substrate addition by DTNB reagent based Ellman's method"}, "Acetylcholinesterase [11]": {"biological_target": "T5, Acetylcholinesterase (Electrophorus electricus, UniProt O42275)", "T5 sequence (O42275 whole entry)": "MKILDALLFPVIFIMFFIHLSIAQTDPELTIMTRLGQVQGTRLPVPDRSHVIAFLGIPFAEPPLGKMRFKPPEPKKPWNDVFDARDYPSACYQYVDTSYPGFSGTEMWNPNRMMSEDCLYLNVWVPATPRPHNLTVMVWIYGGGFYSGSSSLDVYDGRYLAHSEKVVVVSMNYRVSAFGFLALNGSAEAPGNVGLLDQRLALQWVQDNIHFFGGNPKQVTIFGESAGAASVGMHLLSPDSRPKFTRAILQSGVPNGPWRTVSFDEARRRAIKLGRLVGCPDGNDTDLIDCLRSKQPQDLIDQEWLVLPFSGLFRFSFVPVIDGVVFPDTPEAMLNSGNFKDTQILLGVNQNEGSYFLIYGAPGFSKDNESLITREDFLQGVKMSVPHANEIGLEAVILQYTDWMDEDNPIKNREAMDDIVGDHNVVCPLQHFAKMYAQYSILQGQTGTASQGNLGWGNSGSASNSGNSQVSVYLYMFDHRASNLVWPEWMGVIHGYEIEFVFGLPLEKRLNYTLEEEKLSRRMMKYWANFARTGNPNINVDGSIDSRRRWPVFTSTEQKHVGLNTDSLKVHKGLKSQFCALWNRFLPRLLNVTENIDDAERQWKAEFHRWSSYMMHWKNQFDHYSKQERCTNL", "assay": "Inhibition of electric eel AChE using acetylthiocholine iodide as substrate incubated for 6 mins followed by substrate addition by DTNB reagent based Ellman's method"}, "[12]": {"biological_target": "T1, Amine oxidase [flavin-containing] B", "assay": "Inhibition of recombinant human MAO-B using p-tyramine as substrate incubated for 15 mins followed by substrate addition and measured upto 20 mins by Amplex Red assay"}, "[13]": {"biological_target": "T2, Amine oxidase [flavin-containing] A", "assay": "Inhibition of recombinant human MAO-A using p-tyramine as substrate incubated for 15 mins followed by substrate addition and measured for 15 to 20 mins by Amplex Red assay"}, "Cholinesterase [14]": {"biological_target": "Cholinesterase (Equus caballus, UniProt P81908)", "sequence (P81908 whole entry)": "as the sequence (P81908 whole entry) above", "assay": "Inhibition of horse serum BuChE using butyrylthiocholine iodide as substrate preincubated for 5 mins followed by substrate addition and measured for 20 mins by DTNB reagent based Ellman's method"}, "Acetylcholinesterase [15]": {"biological_target": "T5, Acetylcholinesterase", "assay": "Inhibition of electric eel AChE using acetylthiocholine iodide as substrate preincubated for 5 mins followed by substrate addition and measured for 20 mins by DTNB reagent based Ellman's method"}, "[16]": {"biological_target": "T4, Amine oxidase [flavin-containing] B", "assay": "Inhibition of MAO-B expressed in Wistar rat liver preincubated for 30 mins followed by 4-(trifluoromethyl) benzylamine addition and measured after 90 mins by microplate reader analysis", "type": "tissue-based"}, "[17]": {"biological_target": "T1, Amine oxidase [flavin-containing] B", "assay": "Inhibition of recombinant human MAO-B expressed in baculovirus-infected BTI insect cells using p-tyramine as substrate incubated for 45 mins by fluorescence assay"}, "[18]": {"biological_target": "T1, Amine oxidase [flavin-containing] B", "assay": "Inhibition of MAO-B (unknown origin) using as tyramine as substrate by Ampliflu red reagent based fluorometric method"}, "[19]": {"biological_target": "Acetylcholinesterase (Electrophorus electricus) (UniProt O42275)", "sequence (O42275 24-633 limits assumed)": "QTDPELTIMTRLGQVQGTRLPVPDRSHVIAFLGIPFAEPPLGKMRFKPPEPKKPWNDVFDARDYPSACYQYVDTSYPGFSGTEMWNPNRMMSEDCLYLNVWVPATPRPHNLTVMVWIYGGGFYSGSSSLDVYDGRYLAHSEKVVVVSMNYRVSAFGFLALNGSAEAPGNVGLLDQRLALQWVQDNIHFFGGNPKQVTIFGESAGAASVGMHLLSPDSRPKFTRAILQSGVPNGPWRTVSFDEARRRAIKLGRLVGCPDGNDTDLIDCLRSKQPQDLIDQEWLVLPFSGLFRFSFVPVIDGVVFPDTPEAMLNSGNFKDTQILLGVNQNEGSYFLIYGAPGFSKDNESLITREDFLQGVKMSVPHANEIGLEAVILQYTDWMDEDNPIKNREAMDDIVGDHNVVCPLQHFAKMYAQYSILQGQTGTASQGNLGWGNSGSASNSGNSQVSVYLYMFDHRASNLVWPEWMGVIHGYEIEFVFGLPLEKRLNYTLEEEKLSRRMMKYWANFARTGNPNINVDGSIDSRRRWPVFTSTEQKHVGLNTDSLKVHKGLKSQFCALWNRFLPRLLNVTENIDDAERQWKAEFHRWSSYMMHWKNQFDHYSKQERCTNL", "assay": "Inhibition of electric eel AChE using acetylthiocholine iodide as substrate at 1 uM preincubated for 5 mins followed by substrate addition and measured for 20 mins by DTNB reagent based Ellman's method"}, "[20]": {"biological_target": "T2, Amine oxidase [flavin-containing] A", "assay": "Inhibition of human MAO-A using p-tyramine as substrate preincubated for 15 mins followed by substrate addition and measured after 30 mins by Ample red assay"}, "Cholinesterase [21]": {"biological_target": "Cholinesterase (Homo sapiens, UniProt P06276)", "sequence (P06276 whole entry)": "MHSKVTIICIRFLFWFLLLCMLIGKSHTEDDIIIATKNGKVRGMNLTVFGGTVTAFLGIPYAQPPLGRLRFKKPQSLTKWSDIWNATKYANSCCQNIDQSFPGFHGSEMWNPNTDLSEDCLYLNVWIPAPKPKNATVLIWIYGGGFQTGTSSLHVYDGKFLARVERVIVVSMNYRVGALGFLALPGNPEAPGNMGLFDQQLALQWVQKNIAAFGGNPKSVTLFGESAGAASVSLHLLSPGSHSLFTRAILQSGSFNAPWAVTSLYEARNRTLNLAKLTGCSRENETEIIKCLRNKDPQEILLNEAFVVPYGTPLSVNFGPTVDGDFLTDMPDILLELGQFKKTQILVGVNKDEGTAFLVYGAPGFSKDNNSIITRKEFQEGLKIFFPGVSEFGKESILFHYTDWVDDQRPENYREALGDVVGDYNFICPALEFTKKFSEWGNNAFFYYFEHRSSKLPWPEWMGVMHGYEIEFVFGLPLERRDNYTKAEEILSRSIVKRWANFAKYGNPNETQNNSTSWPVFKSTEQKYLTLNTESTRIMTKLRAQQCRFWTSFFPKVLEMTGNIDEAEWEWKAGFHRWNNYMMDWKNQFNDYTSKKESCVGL", "assay": "Inhibition of human BuChE using butyrylthiocholine iodide as substrate preincubated for 30 mins followed by substrate addition and measured after 15 mins by Ellman's method"}, "Acetylcholinesterase [22]": {"biological_target": "T3, Acetylcholinesterase", "assay": "Inhibition of recombinant human AChE using acetylcholine as substrate preincubated for 15 mins followed by substrate addition and measured after 30 mins by Amplex Red reagent based fluorescence assay"}, "[23]": {"biological_target": "T2, Amine oxidase [flavin-containing] A", "assay": "Inhibition of MAO-A (unknown origin) using kynuramine as substrate by spectrophotometric assay"}, "[24]": {"biological_target": "T1, Amine oxidase [flavin-containing] B", "assay": "Inhibition of MAO-B (unknown origin) using benzylamine as substrate by spectrophotometric assay"}}}
{"smiles": "CCCCOc1ccc(C2=NN(C(N)=S)C(c3ccccc3)C2)cc1", "note": "(stereo not drawn)", "values": [{"measurement": "IC50", "setting": "[1]", "result": 380, "unit": "nM"}, {"measurement": "Ratio IC50", "setting": "Homo sapiens", "result": 9.55}, {"measurement": "IC50", "setting": "[2]", "result": 3630, "unit": "nM"}]}
{"smiles": "COc1cc(-c2cc(=O)c3c(O)cc(O)cc3o2)cc(OC)c1O", "note": "[TRICIN]", "values": [{"measurement": "IC50", "setting": "[3]", "result": 250, "unit": "nM"}]}
{"smiles": "CCOc1ccc([N+](=O)[O-])c(N/N=C/c2ccc(O)cc2)n1", "values": [{"measurement": "IC50", "setting": "[4]", "result": 9300, "unit": "nM"}, {"measurement": "IC50", "setting": "[5]", "result": 6250, "unit": "nM"}]}
{"smiles": "Cc1c(C)c2c(c(C)c1O)CCC(C)(C(=O)NCCC1CCN(Cc3ccccc3F)CC1)O2", "note": "(stereo not drawn)", "values": [{"measurement": "IC50", "setting": "[6]", "result": 4300, "unit": "nM"}, {"measurement": "IC50", "setting": "Acetylcholinesterase [7]", "result": 540, "unit": "nM"}]}
{"smiles": "COc1ccc(/C(C)=N/NC(=O)C2CC(c3ccccc3)=NO2)cc1OC", "note": "(stereo not drawn)", "values": [{"measurement": "IC50", "setting": "[8]", "result": 5.9, "unit": "nM"}]}
{"smiles": "Cc1ccc(C2=NOC(c3ccc(Cl)c(Cl)c3)C2)cc1", "note": "(stereo not drawn)", "values": [{"measurement": "IC50", "setting": "[9]", "result": 12, "unit": "nM"}]}
{"smiles": "Cc1c(Cl)c(=O)oc2cc(OCCCSC(=S)N3C(C)CCCC3C)ccc12", "note": "(stereo not drawn)", "values": [{"measurement": "inhibition", "setting": "[10]", "result": 23.3, "unit": "%"}, {"measurement": "IC50", "setting": "Acetylcholinesterase [11]", "result": 44, "unit": "nM"}, {"measurement": "IC50", "setting": "[12]", "result": 101, "unit": "nM"}, {"measurement": "IC50", "setting": "[13]", "result": 5850, "unit": "nM"}]}
{"smiles": "O=c1oc2c(O)c(O)ccc2cc1-c1ccc(O)c(O)c1", "values": [{"measurement": "IC50", "setting": "Cholinesterase [14]", "result": 8370, "unit": "nM"}, {"measurement": "IC50", "setting": "Acetylcholinesterase [15]", "result": 3040, "unit": "nM"}, {"measurement": "IC50", "setting": "[16]", "result": 27000, "unit": "nM"}]}
{"smiles": "O=c1c(O)c(-c2ccc(O)c(O)c2)oc2cc(O)cc(O)c12", "note": "[QUERCETIN]", "values": [{"measurement": "IC50", "setting": "[3]", "result": 1520, "unit": "nM"}]}
{"smiles": "Cn1ccc2cc(C(=S)Nc3ccc(F)cc3)ccc21", "values": [{"measurement": "IC50", "setting": "[17]", "result": 28, "unit": "nM"}]}
{"smiles": "Cc1c(/N=C/c2ccc(O)cc2)c(=O)n(-c2ccccc2)n1C", "values": [{"measurement": "IC50", "setting": "[18]", "result": 114, "unit": "nM"}]}
{"smiles": "O=c1ccc2ccc(OCCN3CCCCC3)cc2o1", "values": [{"measurement": "inhibition", "setting": "[19]", "result": 30.9, "unit": "%"}]}
{"smiles": "C#CCOc1ccc(-c2cc(-c3ccc(OCCN4CCOCC4)cc3)nc(N)n2)cc1", "values": [{"measurement": "IC50", "setting": "[20]", "result": 18.3, "unit": "nM"}, {"measurement": "IC50", "setting": "Cholinesterase [21]", "result": 666, "unit": "nM"}, {"measurement": "IC50", "setting": "Acetylcholinesterase [22]", "result": 30.5, "unit": "nM"}]}
{"smiles": "CCOc1ccc([N+](=O)[O-])c(N/N=C/c2ccco2)n1", "values": [{"measurement": "IC50", "setting": "[4]", "result": 10600, "unit": "nM"}]}
{"smiles": "O=C(/C=C/c1cccc(F)c1)c1ccc(N2CCOCC2)cc1", "values": [{"measurement": "IC50", "setting": "[23]", "result": 45000, "unit": "nM"}, {"measurement": "IC50", "setting": "[24]", "result": 87, "unit": "nM"}]}
{"smiles": "Cc1c(/N=C/c2cccc([N+](=O)[O-])c2)c(=O)n(-c2ccccc2)n1C", "values": [{"measurement": "IC50", "setting": "[18]", "result": 54, "unit": "nM"}]}
